{"source": "patent US20070184554A1", "about": "“Biomarker of improved intestinal function” (NPS ALLELIX CORP., priority 2005, published 2007)", "key": {"plasma citrulline": {"tested_on": "plasma citrulline", "experiment": "Plasma citrulline levels in human Crohn's Disease patients treated with Teduglutide (randomized, double-blind, placebo-controlled clinical study)", "type": "in vivo", "conditions": "for Baseline plasma citrulline levels, mean: baseline (Dosing Day 1), subjects with moderately active CD; for 2-week plasma citrulline levels, mean: week 2; for 2-week plasma citrulline levels, mean / 4-week plasma citrulline levels, mean / 8-week plasma citrulline levels, mean: subcutaneous injection daily, CD subjects; for 4-week plasma citrulline levels, mean: week 4; for 8-week plasma citrulline levels, mean: week 8", "method": "In a further experiment plasma citrulline levels in human patients treated with Teduglutide for the treatment of Crohn's Disease (CD) were determined. Subjects with moderately active CD were treated in a randomized, double-blind, placebo-controlled clinical study to assess the activity of 3 different doses of Teduglutide compared to placebo. The primary objective of the study was to assess the efficacy and the secondary objectives were to assess the safety and tolerability of the different doses of Teduglutide as compared to placebo. Following a screening visit to evaluate whether subjects met the inclusion/exclusion criteria, the study ran over a period of up to 12 weeks, including visits at baseline/Dosing Day 1, Weeks 2, 4, and 8, and one at the end of the follow-up period at Week 12. Teduglutide doses administered by subcutaneous injection were 0.05, 0.10 and 0.20 mg/kg on a daily basis for 8 weeks. The primary efficacy variable used was the percentage of subjects with a response, defined as a 100-point or greater reduction in the subject's CDAI score at dosing Week 8 from their baseline score or a CDAI score less than 150 at Week 8."}, "arrhythmia incidence": {"tested_on": "arrhythmia incidence", "conditions": "CAST, cited from earlier work; for mortality in the drug treatment groups: fold greater"}, "bone mineral density": {"tested_on": "bone mineral density", "conditions": "administration of fluoride, cited from earlier work"}}}
{"smiles": "CC[C@H](C)[C@H](NC(=O)[C@H](Cc1ccccc1)NC(=O)[C@H](CC(=O)O)NC(=O)[C@H](CCCNC(=N)N)NC(=O)[C@H](C)NC(=O)[C@H](C)NC(=O)[C@H](CC(C)C)NC(=O)[C@H](CC(N)=O)NC(=O)[C@H](CC(=O)O)NC(=O)[C@H](CC(C)C)NC(=O)[C@@H](NC(=O)[C@@H](NC(=O)[C@H](CC(N)=O)NC(=O)[C@H](CCSC)NC(=O)[C@H](CCC(=O)O)NC(=O)[C@H](CC(=O)O)NC(=O)[C@H](CO)NC(=O)[C@H](Cc1ccccc1)NC(=O)[C@H](CO)NC(=O)CNC(=O)[C@H](CC(=O)O)NC(=O)CNC(=O)[C@@H](N)Cc1c[nH]cn1)[C@@H](C)O)[C@@H](C)CC)C(=O)N[C@@H](CC(N)=O)C(=O)N[C@@H](Cc1c[nH]c2ccccc12)C(=O)N[C@@H](CC(C)C)C(=O)N[C@H](C(=O)N[C@@H](CCC(N)=O)C(=O)N[C@H](C(=O)N[C@@H](CCCCN)C(=O)N[C@H](C(=O)N[C@H](C(=O)N[C@@H](CC(=O)O)C(=O)O)[C@@H](C)O)[C@@H](C)CC)[C@@H](C)O)[C@@H](C)CC", "note": "[Teduglutide]", "values": [{"measurement": "Baseline plasma citrulline levels, mean", "setting": "plasma citrulline; 0.05 mg group", "result": 21.6, "unit": "µmol/L"}, {"measurement": "Baseline plasma citrulline levels, mean", "setting": "plasma citrulline; 0.10 mg group", "result": 24.7, "unit": "µmol/L"}, {"measurement": "Baseline plasma citrulline levels, mean", "setting": "plasma citrulline; 0.20 mg group", "result": 24.5, "unit": "µmol/L"}, {"measurement": "mean citrulline level, change", "setting": "plasma citrulline; from baseline to week 8, teduglutide-treated groups, placebo group remains the same", "result": "increases"}, {"measurement": "2-week plasma citrulline levels, mean", "setting": "plasma citrulline; 0.05 mg group", "result": 30.3, "unit": "µmol/L"}, {"measurement": "2-week plasma citrulline levels, mean", "setting": "plasma citrulline; 0.10 mg group", "result": 36.9, "unit": "µmol/L"}, {"measurement": "2-week plasma citrulline levels, mean", "setting": "plasma citrulline; 0.20 mg group", "result": 32.7, "unit": "µmol/L"}, {"measurement": "4-week plasma citrulline levels, mean", "setting": "plasma citrulline; 0.05 mg group", "result": 34.5, "unit": "µmol/L"}, {"measurement": "4-week plasma citrulline levels, mean", "setting": "plasma citrulline; 0.10 mg group", "result": 49.1, "unit": "µmol/L"}, {"measurement": "4-week plasma citrulline levels, mean", "setting": "plasma citrulline; 0.20 mg group", "result": 38.8, "unit": "µmol/L"}, {"measurement": "8-week plasma citrulline levels, mean", "setting": "plasma citrulline; 0.05 mg group", "result": 37.9, "unit": "µmol/L"}, {"measurement": "8-week plasma citrulline levels, mean", "setting": "plasma citrulline; 0.10 mg group", "result": 46.0, "unit": "µmol/L"}, {"measurement": "8-week plasma citrulline levels, mean", "setting": "plasma citrulline; 0.20 mg group", "result": 41.8, "unit": "µmol/L"}]}
{"smiles": "O=C(NCC1CCCCN1)c1cc(OCC(F)(F)F)ccc1OCC(F)(F)F", "note": "(stereo not shown) [flecainide]", "values": [{"measurement": "arrhythmia incidence", "setting": "arrhythmia incidence", "result": "significant reduction"}, {"measurement": "mortality in the drug treatment groups", "setting": "arrhythmia incidence", "result": 3, "unit": "fold"}]}
{"smiles": "F", "note": "[fluoride]", "values": [{"measurement": "fracture risk", "setting": "bone mineral density; also weaker bone strength", "result": "increased fracture risk"}, {"measurement": "bone mineral density", "setting": "bone mineral density", "result": "significant increases"}]}
{"smiles": "COc1ccc(C(=O)Nc2ccccc2CCC2CCCCN2C)cc1", "note": "(stereo not shown) [encainide]", "values": [{"measurement": "arrhythmia incidence", "setting": "arrhythmia incidence", "result": "significant reduction"}, {"measurement": "mortality in the drug treatment groups", "setting": "arrhythmia incidence", "result": 3, "unit": "fold"}]}
